# Tests used:
# Format in all cases: biochemical
# [1] = molecular target: T1, CAT (catalase) (Ganoderma lucidum, UniProt A0A223M0M1, C671S); test: biotin-switch immunoblot; CAT activity by H2O2 decomposition at […] nm; details: covalent; S-nitrosylation; room temperature, dark, 60 min
# T1 construct: recombinant, pColdI vector, His-tagged, E. coli BL21(DE3), Ni-NTA purified; 6 cysteine residues
# [2] = molecular target: T2, CAT (catalase) (Ganoderma lucidum, UniProt A0A223M0M1, C660S); test: as above; details: covalent; S-nitrosylation; room temperature, dark, 60 min
# T2 construct: recombinant, pColdI vector, His-tagged, E. coli BL21(DE3), Ni-NTA purified; 6 cysteine residues
# [3] = molecular target: T3, CAT (catalase) (Ganoderma lucidum, UniProt A0A223M0M1, C419S); test: as above; details: covalent; S-nitrosylation; room temperature, dark, 60 min
# T3 construct: recombinant, pColdI vector, His-tagged, E. coli BL21(DE3), Ni-NTA purified; 6 cysteine residues
# [4] = molecular target: T4, CAT (catalase) (Ganoderma lucidum, UniProt A0A223M0M1); test: biotin-switch immunoblot, LC-MS/MS of sites; CAT activity by H2O2 decomposition at […] nm; details: covalent; S-nitrosylation at Cys401, Cys642, Cys653; room temperature, dark, 60 min; activating
# T4 construct: recombinant, pColdI vector, His-tagged, E. coli BL21(DE3), Ni-NTA purified; 6 cysteine residues
# T4 sequence (A0A223M0M1 entry or part of it): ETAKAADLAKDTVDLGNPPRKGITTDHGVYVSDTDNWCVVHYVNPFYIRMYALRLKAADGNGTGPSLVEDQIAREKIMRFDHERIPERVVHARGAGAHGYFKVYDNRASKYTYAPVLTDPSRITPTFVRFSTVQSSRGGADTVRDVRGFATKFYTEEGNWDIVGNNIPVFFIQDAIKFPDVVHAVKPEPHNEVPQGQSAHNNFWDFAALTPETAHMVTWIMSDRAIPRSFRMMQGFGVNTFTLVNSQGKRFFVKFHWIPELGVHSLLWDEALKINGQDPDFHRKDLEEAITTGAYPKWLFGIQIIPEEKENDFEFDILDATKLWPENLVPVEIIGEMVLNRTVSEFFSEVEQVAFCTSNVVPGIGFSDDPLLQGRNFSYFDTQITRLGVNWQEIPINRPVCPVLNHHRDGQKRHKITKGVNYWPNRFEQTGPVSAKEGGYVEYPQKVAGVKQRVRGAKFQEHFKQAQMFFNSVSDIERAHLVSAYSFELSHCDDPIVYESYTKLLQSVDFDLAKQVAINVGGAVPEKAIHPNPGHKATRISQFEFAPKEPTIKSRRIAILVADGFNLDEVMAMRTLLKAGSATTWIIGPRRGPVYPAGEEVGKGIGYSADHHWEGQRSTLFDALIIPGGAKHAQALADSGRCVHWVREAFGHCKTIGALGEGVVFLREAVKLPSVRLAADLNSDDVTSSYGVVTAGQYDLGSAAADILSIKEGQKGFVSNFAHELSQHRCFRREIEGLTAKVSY
# T3 sequence (A0A223M0M1 entry or part of it C419S): as the sequence (A0A223M0M1 entry or part of it) above, with C401S counted along it
# T1 sequence (A0A223M0M1 entry or part of it C671S): as the sequence (A0A223M0M1 entry or part of it) above, with C653S counted along it
# T2 sequence (A0A223M0M1 entry or part of it C660S): as the sequence (A0A223M0M1 entry or part of it) above, with C642S counted along it
structure (smiles),measurement,setting,value
"N[C@@H](CCC(=O)N[C@@H](CSN=O)C(=O)NCC(=O)O)C(=O)O [GSNO, S-nitrosoglutathione]",biotin-switch immunoblot; CAT activity by H2O2 decomposition at 240 nm,[1],"The C401S, C642S, and C653S single mutants"
same,biotin-switch immunoblot; CAT activity by H2O2 decomposition at 240 nm,[2],"The C401S, C642S, and C653S single mutants"
same,biotin-switch immunoblot; CAT activity by H2O2 decomposition at 240 nm,[3],"The C401S, C642S, and C653S single mutants"
same,"biotin-switch immunoblot, LC-MS/MS of sites; CAT activity by H2O2 decomposition",[4],"CAT was S-nitrosylated, which was induced by GSNO"
